Data published in PMC7816196, “Antitubercular 2-Pyrazolylpyrimidinones: Structure–Activity Relationship and Mode-of-Action Studies” (Journal of Medicinal Chemistry, 2021).
In brackets after ≈: the same amount, converted by molar mass. Where two headings read alike, the source gives them in different places.

What was measured:
H37Rv = assay: microbe, parasite or virus in culture; type: cell-based; settings: Mycobacterium tuberculosis, 336 h, 7H9 medium, day 14
SAWC1125 = assay: microbe, parasite or virus in culture; type: cell-based; settings: Mycobacterium tuberculosis, 336 h; typical Beijing; day 14
SAWC3200 = assay: microbe, parasite or virus in culture; type: cell-based; settings: Mycobacterium tuberculosis, 336 h; X1; day 14
SAWC3385 = type: cell-based; settings: Cas 1/Delhi
SAWC3906 = type: cell-based; settings: atypic Beijing
SAWC3933 = type: cell-based; settings: T1
mmpL3-TetON = assay: microbe, parasite or virus in culture; type: cell-based, M. tuberculosis; settings: for MIC / MIC50: Mycobacterium tuberculosis
Mtb H37Rv = assay: MIC against Mtb H37Rv, Alamar Blue broth microdilution; type: cell-based, Mycobacterium tuberculosis
WT H37Rv = assay: microbe, parasite or virus in culture; type: cell-based, M. tuberculosis; settings: Mycobacterium tuberculosis
[1] = mouse blood samples from the PK studies
in vivo = settings: male, C57/BL6, mouse
[2] = Mouse pharmacokinetics, i.v. and oral; settings: for tolerability: mouse, i.v. 2 mg/kg or oral 20 mg/kg
[3] = Kinetic aqueous solubility at pH 7.4; type: physicochemical; settings: read-out: Solubility
Procedure: 3) In vitro ADME - assays
The kinetic solubility assay was p erfo rmed using a miniaturised shake flask method. 10 mM stock solutions of each of the test compounds were used to prepare calibration standards (10-220 µM) in DMSO. The same 10 mM stock soluti ons were accurately dispensed in duplicat e into 96-well plates and the DMSO dried down (MiVac GeneVac, 90 min, 37 °C). Thereafter, the samples were reconstituted (200 µM) in phosphate buffered saline (pH 7. 4) and shaken (20 hours,25 °C). The solutions were centrifuged, and the supernatant was an alysed by means of HPLC-DAD (Agilent 1200 Rapid Resolution HPLC with a diode array detector). Best fit calibration curves were constructed using the calibration standards, which were used to determine the aqueous samples’ solubility.4
The metabolic stability assay was performed in dup licate in a 96-well micro t itre plate. The test compounds (0.1 µM) were incubated individually in mouse, rat and pooled human liver microsomes (final protei n concentration of 0.4 m g/mL; XenoTech, Lenexa, KS), suspended in 0.1M phosphate buffer (pH 7.4) for predetermined time points, in the presence and abs ence of the cofactor NADPH (1 mM). Reactions were quenched by adding 300 µL of ice cold acetonitrile containing internal standard (carbamazepine, 0.0236 µg/mL). The samples were centrifuged and test in the supernatant were an alysed by means of LC-MS/MS ((Agilent Rapid Resolution HPLC, AB SCIEX 4500 MS). The rel ative loss of parent compound over time w as monitored and plots (concentration vs. time) were prepared per compound to determine the first order rate constant for compound depletion. This was in turn used to calculate h alf-life, in vitro intrinsic clearance and in vivo hepatic extraction ratio. Metabolite search es were not conducted during the met abolic stability assay.5

SAWC2371 = assay: microbe, parasite or virus in culture; type: cell-based; settings: Mycobacterium tuberculosis, 336 h; Haarlem; day 14
SAWC4046 = type: cell-based; settings: Haarlem-like
SAWC3388 = type: cell-based; settings: T1, Tuscany, T5/Rus
Rv3247c hypomorph = assay: MIC against thymidylate kinase hypomorph; type: cell-based, Mycobacterium tuberculosis
Source text: Based on the structural similarity of the compounds with the published thymidylate kinase inhibitors,[39],[40] we asked whether this compound series can inhibit Mtb thymidylate kinase, which is an essential target encoded by Rv3247c. To investigate this, we tested the activity of the compounds 1, 2, and 12 against the Rv3247c hypomorph.

[4] = tested on: panel of 21 liability targets; settings: 10 μM test concentration
CHO cell-line = assay: Cytotoxicity, MTT assay, CHO cells; settings: read-out: Cytotoxicity (CHO IC50)
Mtb [5] = assay: microbe, parasite or virus in culture; type: cell-based, Mycobacterium tuberculosis
Mtb [6] = assay: Checkerboard (2D) MIC assay with Fe2+ in GAST media; type: cell-based, Mycobacterium tuberculosis; settings: GAST medium, 100/200 μM Fe2+
[7] = Mycobacterium tuberculosis, H37RV, supplement csv, medium not stated
[8] = male, C57/BL6, mouse, whole blood, iv, 2 mg/kg
[9] = male, C57/BL6, mouse, whole blood, po, 20 mg/kg
[10] = male, C57/BL6, mouse, whole blood, oral, 20 mg/kg
[11] = Mycobacterium tuberculosis, H37RV, antitubercular activity of the initial hits, medium not stated

Row | Compound | MIC99 (H37Rv) [µM] | MIC99 (SAWC1125) [µM] | MIC99 (SAWC3200) [µM] | MIC99 day 14, SAWC3385 (SAWC3385) [µM] | MIC99 day 14, SAWC3906 (SAWC3906) [µM] | MIC99 day 14, SAWC3933 (SAWC3933) [µM] | change in MIC on transcriptional silencing of mmpL3 (mmpL3-TetON) | MIC50 (WT H37Rv; experiment: Follow-Up) [µM] | MIC50 (WT H37Rv; experiment: Initial) [µM] | MIC (mmpL3-TetON; experiment: Follow-Up) [µM] | MIC50 (mmpL3-TetON; experiment: Follow-Up) [µM] | MIC (mmpL3-TetON; experiment: Initial) [µM] | MIC50 (mmpL3-TetON; experiment: Initial) [µM] | tolerability [2] | MIC99 (SAWC2371) [µM] | MIC99 day 14, SAWC4046 (SAWC4046) [µM] | MIC99 day 14, SAWC3388 (SAWC3388) [µM] | MIC modulation upon silencing of Rv3247c (Rv3247c hypomorph) | further results
1 | CC(=O)Nc1cc(C)nn1-c1nc(-c2ccccc2)cc(=O)[nH]1 [Compound 15, N-(3-Methyl-1-(4-oxo-6-phenyl-1,4-dihydropyrimidin-2-yl)-1H-pyrazol-5-yl)acetamide] | 4 to 8 (≈ 1.24 to 2.47 µg/mL) | 8 to 16 (≈ 2.47 to 4.95 µg/mL) | 1 (≈ 0.309 µg/mL) | 2 (≈ 0.619 µg/mL) | 2 (≈ 0.619 µg/mL) | 8 (≈ 2.47 µg/mL) | no significant change | – | – | – | – | – | – | – | – | – | – | – | –
2 | CCNc1cc(C)nn1-c1nc(-c2cccnc2)cc(=O)[nH]1 [Compound 47, 2-(5-(Ethylamino)-3-methyl-1H-pyrazol-1-yl)-6-(pyridin-3-yl)pyrimidin-4(3H)-one] | – | – | – | – | – | – | no significant change | 3.5 (≈ 1.04 µg/mL) | 2.5 (≈ 0.741 µg/mL) | 4.4 (≈ 1.3 µg/mL) | 3.2 (≈ 0.948 µg/mL) | 2.4 (≈ 0.711 µg/mL) | 2.1 (≈ 0.622 µg/mL) | well tolerated | – | – | – | – | MIC (Mtb H37Rv; [7]): 6 µM (≈ 1.78 µg/mL); major metabolite [1]: glucuronide; half-life (in vivo; iv, 2 mg/kg): 336 min; half-life (in vivo; po, 20 mg/kg): 264 min; AUC(0-inf) [2, 8]: 1.52 µM·h; CLint scaled [2, 8]: > 4000 mL/min/kg; Cmax [2, 8]: 2.4 µM; Vd [2, 8]: 37.4 L/kg; AUC(0-inf) [2, 9]: 5.22 µM·h; Cmax [2, 9]: 2.9 µM; Tmax [2, 9]: 30 min; bioavailability [2, 9]: 33%
3 | Cc1cc(C)n(-c2nc(C(F)(F)F)cc(=O)[nH]2)n1 [Compound 12, 2-(3,5-Dimethyl-1H-pyrazol-1-yl)-6-(trifluoromethyl)pyrimidin-4(3H)-one] | 2 (≈ 0.516 µg/mL) | 8 to 16 (≈ 2.07 to 4.13 µg/mL) | 1 (≈ 0.258 µg/mL) | 1 (≈ 0.258 µg/mL) | 2 (≈ 0.516 µg/mL) | – | no significant change | 8.3 (≈ 2.14 µg/mL) | 4.5 (≈ 1.16 µg/mL) | – | 8.9 (≈ 2.3 µg/mL) | 6.2 (≈ 1.6 µg/mL) | 4.8 (≈ 1.24 µg/mL) | well tolerated | 2 (≈ 0.516 µg/mL) | 1 (≈ 0.258 µg/mL) | 2 to 4 | did not observe any MIC modulation | loss in activity (Mtb H37Rv; CH3 or CF3 at R1 instead of phenyl): 10–15 fold; solubility at 20 h ([3]; phosphate buffered saline, pH 7.4, aqueous (kinetic) solubility at pH 7.4): ≥ 200 µM; MIC (WT H37Rv; experiment: Initial): 5.4 µM (≈ 1.39 µg/mL); inhibition or activation of the enzyme/receptors [4]: no significant inhibition or activation; half-life at 24 h (in vivo; iv, 2 mg/kg): 186 min; half-life at 24 h (in vivo; po, 20 mg/kg): 240 min; AUC(0-inf) at 24 h [2, 8]: 48.8 µM·h; clearance at 24 h [2, 8]: 2.7 mL/min/kg; bioavailability [2, 10]: ~40%
4 | Cc1cc(C)n(-c2nc(O)cc(-c3ccccc3)n2)n1 [Compound 1, 2-(3,5-Dimethyl-1H-pyrazol-1-yl)-6-phenylpyrimidin-4(3H)-one] | 1 to 2 (≈ 0.266 to 0.533 µg/mL) | 8 (≈ 2.13 µg/mL) | 0.25 (≈ 0.0666 µg/mL) | 0.25 to 0.5 | 0.25 (≈ 0.0666 µg/mL) | 2 to 4 | no significant change | 0.49 (≈ 0.13 µg/mL) | 0.26 (≈ 0.0692 µg/mL) | 0.57 (≈ 0.152 µg/mL) | 0.42 (≈ 0.112 µg/mL) | 0.7 (≈ 0.186 µg/mL) | 0.29 (≈ 0.0772 µg/mL) | – | 0.25 to 0.5 (≈ 0.0666 to 0.133 µg/mL) | 0.25 to 0.5 | 0.25 to 0.5 | did not observe any MIC modulation | MIC (Mtb H37Rv; [11]): < 2 µM; MIC (Mtb H37Rv; [7]): 1 µM (≈ 0.266 µg/mL); MIC (WT H37Rv; experiment: Follow-Up): 0.78 µM (≈ 0.208 µg/mL); inhibition or activation of the enzyme/receptors [4]: no significant inhibition or activation
5 | 6-(3,5-Dimethyl-1H-pyrazol-1-yl)-4-phenylpyridin-2(1H)-one [Compound 5] | – | – | – | – | – | – | – | – | – | – | – | – | – | – | – | – | – | – | MIC (Mtb H37Rv): >50 µM; MIC (Mtb H37Rv; supplement csv, medium not stated): >50 µM; solubility at 20 h ([3]; aqueous (kinetic) solubility at pH 7.4): 185 µM; IC50 (CHO cell-line): > 50 µM
6 | Cc1cc(C)n(-c2nc(-c3ccncc3)cc(=O)[nH]2)n1 [Compound 20, 2-(3,5-Dimethyl-1H-pyrazol-1-yl)-6-(pyridin-4-yl)pyrimidin-4(3H)-one] | 4 to 8 (≈ 1.07 to 2.14 µg/mL) | 32 (≈ 8.55 µg/mL) | 1 to 2 (≈ 0.267 to 0.535 µg/mL) | 2 to 4 | 2 (≈ 0.535 µg/mL) | 16 (≈ 4.28 µg/mL) | – | – | – | – | – | – | – | – | 2 to 4 (≈ 0.535 to 1.07 µg/mL) | 2 to 4 | 4 to 8 | – | –
7 | Cc1cc(Nc2ccc(F)cc2)n(-c2nc(C(F)(F)F)cc(=O)[nH]2)n1 [Compound 40, 2-(5-((4-Fluorophenyl)amino)-3-methyl-1H-pyrazol-1-yl)-6-(trifluoromethyl)pyrimidin-4(3H)-one] | – | – | – | – | – | – | no significant change | 0.4 (≈ 0.141 µg/mL) | 0.3 (≈ 0.106 µg/mL) | 0.56 (≈ 0.198 µg/mL) | 0.36 (≈ 0.127 µg/mL) | 0.34 (≈ 0.12 µg/mL) | 0.18 (≈ 0.0636 µg/mL) | well tolerated | – | – | – | – | MIC (WT H37Rv; experiment: Follow-Up): 0.51 µM (≈ 0.18 µg/mL); MIC (WT H37Rv; experiment: Initial): 0.54 µM (≈ 0.191 µg/mL); half-life (in vivo; iv, 2 mg/kg): 240 min; half-life (in vivo; po, 20 mg/kg): 366 min; AUC(0-inf) [2, 8]: 256 µM·h; CLint scaled [2, 8]: 34 mL/min/kg; Cmax [2, 8]: 33.1 µM; Vd [2, 8]: 0.1 L/kg; clearance [2, 8]: 0.4 mL/min/kg; bioavailability [2, 10]: ~40%; AUC(0-inf) [2, 9]: 1090 µM·h; Cmax [2, 9]: 104 µM; bioavailability [2, 9]: 44%
8 | Cc1cc(Nc2ccccn2)n(-c2nc(C(F)(F)F)cc(=O)[nH]2)n1 [Compound 45, 2-(3-Methyl-5-(pyridin-2-ylamino)-1H-pyrazol-1-yl)-6-(trifluoromethyl)pyrimidin-4(3H)-one] | – | – | – | – | – | – | – | – | – | – | – | – | – | – | – | – | – | – | MIC (Mtb H37Rv; Mycobacterium tuberculosis, H37RV, 168 h): ≤ 1 µM; Fold-change of MIC (Mtb [5]; 200 µM Ferric ammonium citrate): 2-4 fold; MIC (Mtb [5]; Mycobacterium tuberculosis, […], supplement: None): 0.39 µM (≈ 0.131 µg/mL); increase in MIC (Mtb [6]): ≥ 32 fold
9 | Cc1ccc(Nc2cc(C)nn2-c2nc(C)cc(O)n2)cc1 [Compound 2, 6-Methyl-2-(3-methyl-5-(p-tolylamino)-1H-pyrazol-1-yl)pyrimidin-4(3H)-one] | – | – | – | – | – | – | no significant change | – | – | – | – | – | – | – | – | – | – | did not observe any MIC modulation | MIC (Mtb H37Rv; [11]): < 2 µM
